Source: US20230103631A1, “PEPTIDES AS SELECTIVE GIP RECEPTOR AGONISTS” (Sanofi, priority 2020, published 2023)
*1 amine or outer side, *2 acyl side, *3 side chain or, on linkers, in order; H or OH if unused. Where a SMILES comes first, the peptide text is derived from it. Where no end group is shown, it is not given here. Side-chain parts run from the residue outwards. [ ]: non-standard residue; d: D form. The star is where a group is joined. C18 diacid = O=C(O)CCCCCCCCCCCCCCCCC(=O)*; γGlu = O=C(O)[C@H](CCC(=O)[*:2])N[*:1]; NMeY = CN[C@@H](Cc1ccc(O)cc1)C(=O)O; AEEA = NCCOCCOCC(=O)O; Aib = CC(C)(N)C(=O)O; Sar = CNCC(=O)O

Legend:
physchem = type: physicochemical; conditions: for Soluble amount: 24 h, pH 7.4; for solubility at 24 h: pH 7.4, Soluble amount
Description: Prior to the solubility measurement of a peptide batch, its purity was determined through UHPLC/MS. […] Therefore, solutions from solid samples were prepared in a buffer system with a concentration of 10 mg/ml compound based on the previously determined % purity: Solubility buffer system A) 100 mM phosphate buffer pH 7.4 […] Solubility buffer system C) 100 mM phosphate buffer pH 7.4, 2.7 mg/ml m-cresol UHPLC-UV was performed after 1 h of gentle agitation and storage at 5° C. over night (24 h) from the supernatant, which was obtained after 15 min of centrifugation at 2500 RCF (relative centrifugal acceleration). […] The different UV extinction coefficients of sample and reference peptide were calculated based on the different amino acid sequences and considered in the concentration calculation. The analytical method used was Analytical UHPLC Method A. Peptide samples were prepared in solubility buffer system A or C and solubility was assessed as described in Methods.

[1] = target: human GLP-1 receptor (hGLP-1R) (Homo sapiens, UniProt P43220); test: cAMP HTRF assay, HEK-293 cell line over-expressing human GLP-1 receptor; type: cell-based; conditions: HEK-293, cAMP, 0% HSA
human GLP-1 receptor (hGLP-1R), sequence (P43220 24-463): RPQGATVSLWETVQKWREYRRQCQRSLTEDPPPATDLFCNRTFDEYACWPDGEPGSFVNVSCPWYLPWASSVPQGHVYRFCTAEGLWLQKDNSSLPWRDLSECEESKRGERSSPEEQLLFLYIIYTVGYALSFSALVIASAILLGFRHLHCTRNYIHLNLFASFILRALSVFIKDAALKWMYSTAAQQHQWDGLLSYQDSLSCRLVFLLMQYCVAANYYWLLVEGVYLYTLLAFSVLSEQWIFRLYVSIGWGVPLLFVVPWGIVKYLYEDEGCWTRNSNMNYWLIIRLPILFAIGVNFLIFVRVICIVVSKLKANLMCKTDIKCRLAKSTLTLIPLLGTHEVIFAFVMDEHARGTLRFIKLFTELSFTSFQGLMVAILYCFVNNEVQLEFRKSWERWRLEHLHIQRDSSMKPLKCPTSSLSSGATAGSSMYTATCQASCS
Description: Each vial contained 1.8 ml cells. The vials were slowly frozen to −80° C. in isopropanol, and then transferred in liquid nitrogen for storage.
Prior to their use, frozen cells were thawed quickly at 37° C. and washed (5 min at 900 rpm) with 20 ml cell buffer (1× HBSS; 20 mM HEPES, plus 0.1% HSA if indicated in Example conditions).
For measurement of cAMP generation, 5 μl cells (final 5000 cells/well) and 5 μl of test compound were added to a 384-well plate, followed by incubation for 30 min at room temperature.
The cAMP generated was determined using a kit from Cisbio Corp. based on HTRF (Homogenous Time Resolved Fluorescence). The cAMP assay was performed according to manufacturer's instructions (Cisbio).

human GIP receptor = target: T1, human GIP receptor (human, UniProt P48546 22-466); test: cell-based or functional assay
T1 sequence (looked up): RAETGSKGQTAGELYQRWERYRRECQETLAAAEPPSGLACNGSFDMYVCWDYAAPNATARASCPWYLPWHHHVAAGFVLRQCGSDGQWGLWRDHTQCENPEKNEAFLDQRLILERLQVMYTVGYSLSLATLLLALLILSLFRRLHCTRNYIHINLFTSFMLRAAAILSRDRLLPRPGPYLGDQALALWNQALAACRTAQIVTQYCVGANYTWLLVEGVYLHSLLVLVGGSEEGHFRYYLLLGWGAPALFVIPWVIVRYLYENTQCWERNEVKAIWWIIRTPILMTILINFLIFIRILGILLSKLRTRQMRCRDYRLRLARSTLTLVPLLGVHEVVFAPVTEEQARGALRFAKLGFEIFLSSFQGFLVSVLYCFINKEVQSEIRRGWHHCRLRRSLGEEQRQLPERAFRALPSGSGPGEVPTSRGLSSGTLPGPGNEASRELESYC

human GLP-1 receptor = human GLP-1 receptor (human, UniProt P43220 24-463); test: cell-based or functional assay

## CC[C@H](C)[C@H](NC(=O)[C@H](Cc1ccccc1)NC(=O)[C@H](CCC(=O)O)NC(=O)[C@H](CCC(=O)O)NC(=O)[C@H](CCC(N)=O)NC(=O)[C@H](Cc1c[nH]cn1)NC(=O)[C@@H](NC(=O)[C@H](CCCNC(=N)N)NC(=O)[C@H](CC(=O)O)NC(=O)[C@H](CCCCNC(=O)COCCOCCNC(=O)COCCOCCNC(=O)COCCOCCNC(=O)CC[C@H](NC(=O)CCCCCCCCCCCCCCCCC(=O)O)C(=O)O)NC(=O)C(C)(C)NC(=O)[C@@H](NC(=O)[C@H](CO)NC(=O)[C@H](CC(C)C)NC(=O)[C@H](CC(=O)O)NC(=O)[C@H](CO)NC(=O)[C@@H](NC(=O)[C@H](Cc1ccccc1)NC(=O)[C@@H](NC(=O)CNC(=O)[C@H](CCC(=O)O)NC(=O)C(C)(C)NC(=O)[C@@H](N)Cc1ccc(O)cc1)[C@@H](C)O)[C@@H](C)CC)[C@@H](C)CC)[C@@H](C)CC)C(=O)N[C@@H](CCC(=O)O)C(=O)N[C@@H](Cc1c[nH]c2ccccc12)C(=O)N[C@@H](CC(C)C)C(=O)N[C@@H](CC(C)C)C(=O)N[C@@H](C)C(=O)N[C@@H](CCC(N)=O)C(=O)NCC(=O)N1CCC[C@H]1C(=O)N[C@@H](CO)C(=O)N[C@@H](CO)C(=O)NCC(=O)N[C@@H](C)C(=O)N1CCC[C@H]1C(=O)N1CCC[C@H]1C(=O)N1CCC[C@H]1C(=O)N[C@@H](CO)C(N)=O [SEQ ID NO: 12, H2N-Y-Aib-E-G-T-F-I-S-D-I-S-I-Aib-K[{AEEA}3-gGlu-C18OH]-DRIHQEEFIEWILAQGPSSGAPPPS-NH2] (H-Y[Aib]EGTFISDLSI[Aib]K([AEEA-AEEA-AEEA-γGlu-C18 diacid])DRIHQEEFIEWLLAQGPSSGAPPPS-NH2)
physchem
  Soluble amount: >9.1 mg/mL
  solubility at 24 h: > 8800 µg/mL
[1]
  EC50: > 10 nM

## CC[C@H](C)[C@H](NC(=O)[C@H](Cc1ccccc1)NC(=O)[C@H](CCC(=O)O)NC(=O)[C@H](CCC(=O)O)NC(=O)[C@H](CCC(N)=O)NC(=O)[C@H](Cc1c[nH]cn1)NC(=O)[C@@H](NC(=O)[C@H](CCCNC(=N)N)NC(=O)[C@H](CC(=O)O)NC(=O)[C@H](CCCCNC(=O)COCCOCCNC(=O)COCCOCCNC(=O)CC[C@H](NC(=O)CCCCCCCCCCCCCCCCC(=O)O)C(=O)O)NC(=O)C(C)(C)NC(=O)[C@@H](NC(=O)[C@H](CO)NC(=O)[C@H](CC(C)C)NC(=O)[C@H](CC(=O)O)NC(=O)[C@H](CO)NC(=O)[C@@H](NC(=O)[C@H](Cc1ccccc1)NC(=O)[C@@H](NC(=O)CNC(=O)[C@H](CCC(=O)O)NC(=O)C(C)(C)NC(=O)[C@H](Cc1ccc(O)cc1)NC)[C@@H](C)O)[C@@H](C)CC)[C@@H](C)CC)[C@@H](C)CC)C(=O)N[C@@H](CCC(=O)O)C(=O)N[C@@H](Cc1c[nH]c2ccccc12)C(=O)N[C@@H](CC(C)C)C(=O)N[C@@H](CC(C)C)C(=O)N[C@@H](C)C(=O)N[C@@H](CCC(N)=O)C(=O)NCC(=O)N1CCC[C@H]1C(=O)N[C@@H](CO)C(=O)N[C@@H](CO)C(=O)NCC(=O)N[C@@H](C)C(=O)N1CCC[C@H]1C(=O)N1CCC[C@H]1C(=O)N1CCC[C@H]1C(=O)N[C@@H](CO)C(N)=O [SEQ ID NO: 13, MeHN-Y-Aib-E-G-T-F-I-S-D-I-S-I-Aib-K[{AEEA}2-gGlu-C18OH]-DRIHQEEFIEWILAQGPSSGAPPPS-NH2] (H-[NMeY][Aib]EGTFISDLSI[Aib]K([AEEA-AEEA-γGlu-C18 diacid])DRIHQEEFIEWLLAQGPSSGAPPPS-NH2)
physchem
  Soluble amount: >11.0 mg/mL
  solubility at 24 h: > 10200 µg/mL
[1]
  EC50: > 10 nM

## CC[C@H](C)[C@H](NC(=O)[C@H](Cc1ccccc1)NC(=O)[C@H](CCC(=O)O)NC(=O)[C@H](CCC(=O)O)NC(=O)[C@H](CCC(N)=O)NC(=O)[C@H](Cc1c[nH]cn1)NC(=O)[C@@H](NC(=O)[C@H](CCCNC(=N)N)NC(=O)[C@H](CC(=O)O)NC(=O)[C@H](CCCCNC(=O)COCCOCCNC(=O)COCCOCCNC(=O)CC[C@H](NC(=O)CC[C@H](NC(=O)CCCCCCCCCCCCCCCCC(=O)O)C(=O)O)C(=O)O)NC(=O)C(C)(C)NC(=O)[C@@H](NC(=O)[C@H](CO)NC(=O)[C@H](CC(C)C)NC(=O)[C@H](CC(=O)O)NC(=O)[C@H](CO)NC(=O)[C@@H](NC(=O)[C@H](Cc1ccccc1)NC(=O)[C@@H](NC(=O)CNC(=O)[C@H](CCC(=O)O)NC(=O)C(C)(C)NC(=O)[C@@H](N)Cc1ccc(O)cc1)[C@@H](C)O)[C@@H](C)CC)[C@@H](C)CC)[C@@H](C)CC)C(=O)N[C@@H](CCC(=O)O)C(=O)N[C@@H](Cc1c[nH]c2ccccc12)C(=O)N[C@@H](CC(C)C)C(=O)N[C@@H](CC(C)C)C(=O)N[C@@H](C)C(=O)N[C@@H](CCC(N)=O)C(=O)NCC(=O)N1CCC[C@H]1C(=O)N[C@@H](CO)C(=O)N[C@@H](CO)C(=O)NCC(=O)N[C@@H](C)C(=O)N1CCC[C@H]1C(=O)N1CCC[C@H]1C(=O)N1CCC[C@H]1C(=O)N[C@@H](CO)C(N)=O [SEQ ID NO: 14, H2N-Y-Aib-E-G-T-F-I-S-D-I-S-I-Aib-K[{AEEA}2-{gGlu}2-C18OH]-DRIHQEEFIEWILAQGPSSGAPPPS-NH2] (H-Y[Aib]EGTFISDLSI[Aib]K([AEEA-AEEA-γGlu-γGlu-C18 diacid])DRIHQEEFIEWLLAQGPSSGAPPPS-NH2)
physchem
  Soluble amount: >9.7 mg/mL
  solubility at 24 h: > 9300 µg/mL
[1]
  EC50: > 10 nM

B1: SEQ ID NO: 17 (peptide)
peptide: Y[Aib]EGTFISDLSI[Aib]K([Sar-Sar-Sar-γGlu-C18 diacid])DRIHQEEFIEWLLAQGPSSGAPPPS-NH2
modifications: N-terminus assumed
SMILES: CC[C@H](C)[C@H](NC(=O)[C@H](Cc1ccccc1)NC(=O)[C@H](CCC(=O)O)NC(=O)[C@H](CCC(=O)O)NC(=O)[C@H](CCC(N)=O)NC(=O)[C@H](Cc1c[nH]cn1)NC(=O)[C@@H](NC(=O)[C@H](CCCNC(=N)N)NC(=O)[C@H](CC(=O)O)NC(=O)[C@H](CCCCNC(=O)CN(C)C(=O)CN(C)C(=O)CN(C)C(=O)CC[C@H](NC(=O)CCCCCCCCCCCCCCCCC(=O)O)C(=O)O)NC(=O)C(C)(C)NC(=O)[C@@H](NC(=O)[C@H](CO)NC(=O)[C@H](CC(C)C)NC(=O)[C@H](CC(=O)O)NC(=O)[C@H](CO)NC(=O)[C@@H](NC(=O)[C@H](Cc1ccccc1)NC(=O)[C@@H](NC(=O)CNC(=O)[C@H](CCC(=O)O)NC(=O)C(C)(C)NC(=O)[C@@H](N)Cc1ccc(O)cc1)[C@@H](C)O)[C@@H](C)CC)[C@@H](C)CC)[C@@H](C)CC)C(=O)N[C@@H](CCC(=O)O)C(=O)N[C@@H](Cc1c[nH]c2ccccc12)C(=O)N[C@@H](CC(C)C)C(=O)N[C@@H](CC(C)C)C(=O)N[C@@H](C)C(=O)N[C@@H](CCC(N)=O)C(=O)NCC(=O)N1CCC[C@H]1C(=O)N[C@@H](CO)C(=O)N[C@@H](CO)C(=O)NCC(=O)N[C@@H](C)C(=O)N1CCC[C@H]1C(=O)N1CCC[C@H]1C(=O)N1CCC[C@H]1C(=O)N[C@@H](CO)C(N)=O
Human GIP receptor
  EC50 hGIPR 0% HSA, cAMP in HEK-293 cells: 0.00029 nM
  EC50 hGIPR 0.1% HSA, cAMP in HEK-293 cells: 0.00339 nM
Human GLP-1 receptor
  EC50 hGLP-1R 0% HSA, cAMP in HEK-293 cells: > 10 nM
